In ChEMBL document CHEMBL1143604, “Structure-activity relationship studies optimizing the antiproliferative activity of novel cyclic somatostatin analogues containing a restrained cyclic beta-amino acid” (J Med Chem, 2005):

These molecules were tested on A-431 (assay: Antiproliferative activity against human epidermiod carcinoma A431 cells).
Type: functional, cell-based

`CCCC[C@@H]1NC(=O)[C@@H](Cc2c[nH]c3ccccc23)NC(=O)[C@H](Cc2ccc(O)cc2)NC(=O)[C@H]2C[C@@H](C)C=C(C)[C@H]2NC(=O)[C@H]([C@@H](C)OC(c2ccccc2)(c2ccccc2)c2ccccc2)NC1=O` and `CCCC[C@@H]1NC(=O)[C@@H](Cc2c[nH]c3ccccc23)NC(=O)[C@@H](Cc2ccc(O)cc2)NC(=O)[C@H]2C[C@@H](C)C=C(C)[C@H]2NC(=O)[C@H]([C@@H](C)OC(c2ccccc2)(c2ccccc2)c2ccccc2)NC1=O` are within 1.5-fold of each other in IC50: 5 µM for the first, 6 µM for the second.

Going from `CCCC[C@@H]1NC(=O)[C@@H](Cc2c[nH]c3ccccc23)NC(=O)[C@H](Cc2ccc(O)cc2)NC(=O)[C@H]2C[C@@H](C)C=C(C)[C@H]2NC(=O)[C@H]([C@@H](C)O)NC1=O` to `CCCC[C@@H]1NC(=O)[C@@H](Cc2c[nH]c3ccccc23)NC(=O)[C@H](Cc2ccc(O)cc2)NC(=O)[C@@H]2CCCN2C(=O)[C@H](Cc2ccccc2)NC(=O)[C@H]([C@@H](C)O)NC1=O`, the IC50 falls from greater than 100 µM to 32 µM. The second is the more potent here.

Going from `CCCC[C@@H]1NC(=O)[C@H](Cc2c[nH]c3ccccc23)NC(=O)[C@@H](Cc2ccc(O)cc2)NC(=O)[C@@H]2CCCN2C(=O)[C@H](Cc2ccccc2)NC(=O)[C@@H]([C@@H](C)OC(c2ccccc2)(c2ccccc2)c2ccccc2)NC1=O` to `C[C@@H](O)[C@@H]1NC(=O)C(CCCCN)NC(=O)[C@@H](Cc2c[nH]c3ccccc23)NC(=O)C(Cc2ccccc2)NC(=O)[C@@H]2CCCN2C(=O)C(Cc2ccccc2)NC1=O` (single isomer, unassigned), the IC50 rises from 26 µM to greater than 50 µM. The first is the more potent here.
